# Results reported in paper PMC11649784, “Re-design and evaluation of diclofenac-based carborane-substituted prodrugs and their anti-cancer potential” (Scientific Reports, 2024).
# What was measured:
# [1] = test system: MC38 cells; experiment: Crystal violet (CV) viability assay, MC38; assay type: cell-based, murine; conditions: 72 h
# Procedure: (§1) In a preliminary test, the stability of all compounds dissolved in the cell medium (c = 100 μM, T = [drawing 47] ) for 72 h was validated by HPLC (see Supporting Information). Cell lines were incubated with the respective compounds in a concentration range of 1.56–100 μM for 72 h, and cell viability was measured using 3-(4,5-dimethylthiazol-2-yl)-2,5-diphenyltetrazolium bromide (MTT) and crystal violet (CV) assays. […] As MTT tests gave inconsistent results, possibly due to interference of the compound with mitochondrial respiration, for the further evaluation only the CV results are considered[97],[98].
# (§2) The biological study was performed on a murine colon adenocarcinoma cell line (MC38), two human colorectal carcinoma cell lines (HCT116 and HT29), and a human fetal lung fibroblast cell line (MRC-5). All cell lines are commercially available and were obtained from the American Type Culture Collection (ATCC). The human cell lines were kept in HEPES-buffered RPMI-1640 medium supplemented with 10 [drawing 141] heat-inactivated FCS, 2 mM L-glutamine, 0.01 [drawing 142] sodium pyruvate, penicillin (100 units mL^−1), and, streptomycin ( [drawing 143] mL^-1). The MC38 cell line was maintained in DMEM medium additionally supplemented with 1 [drawing 144] non-essential amino acids. Cells were grown at [drawing 145] in a humidified atmosphere with 5 [drawing 146] [drawing 147] . Peritoneal exudate cells (PECs) were isolated from healthy C57BL/6 mice (males, n = 3, 3 months old, weight 22–25 g) by performing an ice-cold PBS peritoneal lavage. Mice were sacrificed by cervical dislocation. Cells were cultivated for 4 h when nonadherent population was removed by washing in PBS, and additionally cultivated overnight in HEPES-buffered RPMI-1640 medium supplemented with 5 [drawing 148] heat-inactivated FCS before treatment with experimental drugs. Animal handling and protocol for isolation of PECs were performed according to European Union rules, and the ARRIVE guidelines 2.0.
# (§3) For the viability tests, MC38, HCT116, and HT29 cells were seeded in 96-well plates at a density of 2 [drawing 149] 103, 5 [drawing 150] 103, and 6 [drawing 151] 10^3 cells/well, respectively. To determine whether the drug affected the viability of healthy, non-malignant cells, MRC-5 and PECs were seeded in 96-well plates at a density of 8 [drawing 152] 103 and 2 [drawing 153] 10^5 cells/well, respectively. For the flow cytometric analyses, MC38 cells were seeded in 6-well plates at 5 [drawing 154] 10^4 cells/well. For morphological assessment of nuclei and the detection of autophagy, MC38 cells were seeded in 2-well chamber slides at 1.5 [drawing 155] 10^4 cells/well.
# (§4) After 72 h, cell viability was determined using MTT and CV tests. First, the supernatant from the wells was discarded and the cells were incubated with an MTT solution (0.5 mg mL^−1). After half an hour, the purple formazan crystals formed were dissolved in DMSO. For CV staining of the cells, the cells were fixed with 4 [drawing 157] PFA for 10 min and then stained with a 0.02 [drawing 158] CV solution for 15 min, all at room temperature (RT). The cells were then washed with tap water, air-dried and the dye was dissolved in 33 [drawing 159] acetic acid. For both viability tests, the absorbance of the developed colors was measured using an automated microplate reader at 570 nm with a reference wavelength of 670 nm. The results were expressed as a percentage of the control values of the untreated cells, which were arbitrarily set at 100 [drawing 160] . IC50 values, defined as 50 [drawing 161] inhibitory concentration, were calculated using a four-parameter logistic function and presented as mean±SD. All biological experiments were performed in triplicates. To evaluate the nature of the detected autophagy, a combined treatment with compound 3 and the autophagy inhibitors chloroquine (Chlq) and 3-methyladenine (3-MA) was carried out. […] After 72 h, cell viability was determined by CV assay.
# [2] = test system: HCT116 cells; experiment: Crystal violet (CV) viability assay, HCT116; assay type: cell-based, human; conditions: 72 h, mean±SD; read-out: IC50 [μM] (n = 3) HCT116 CV
# Procedure: as §1, §2, §3, §4
# [3] = test system: MC38 cells; experiment: ApoStat caspase activity, flow cytometry; assay type: cell-based, murine; conditions: IC50 concentration, 72 h
# Procedure: (§5) For all flow cytometric analyses, MC38 cells were seeded overnight and then treated with the IC50 concentration of compound 3 for 72 h. The cells were harvested, washed, and stained according to the manufacturer’s instructions for each method. To determine whether the compound induces apoptosis, cells were double stained with AnnV-FITC and PI (15 μg mL^–1) for 15 min at RT in the dark. To detect caspase activity, cells were stained with the FITC-conjugated caspase inhibitor ApoStat for 30 min at [drawing 162] . To detect cell proliferation, MC38 cells were stained with CFSE (1 μM) for 10 min at [drawing 163] prior to seeding and then treated as previously described. To detect intracellular production of Reactive oxygen/nitrogen Species (ROS/RNS), MC38 cells were prestained with DHR 123 (1 [drawing 164] M) for 20 min at [drawing 165] , then seeded and exposed to an IC50 concentration of compound 3. After 72 h incubation, all samples were washed, resuspended in PBS and fluorescence intensity was analyzed using a CytoFLEX [drawing 166] flow cytometer (Beckman Coulter, Pasadena, CA, USA), while the data obtained was evaluated using the [drawing 167] software program.
# [4] = test system: MC38 cells; experiment: Acridine orange staining for autophagosomes; assay type: cell-based, murine; conditions: IC50 concentration, 72 h
# Procedure: For morphological assessment of cell nuclei, MC38 cells were seeded overnight in 2-well chamber slides and then treated with the IC50 concentration of compound 3 for 72 h. At the end of the incubation period, cells were fixed with 4 [drawing 168] PFA for 15 min at RT. Staining of cells was performed with PI solution (0.1 [drawing 169] Triton X-100, 0.5 M EDTA pH 8, 50 μg mL^− 1 RNase, and 50 [drawing 170] mL^− 1 PI - final concentrations in PBS) for 1–2 min at RT. After washing in PBS, the cells were mounted in a fluorescence microscopy medium (Fluoromount- [drawing 171] , eBioscience, San Diego, CA, USA). The slides were analyzed with a ZeissAxio Observer Z1 inverted fluorescence microscope (Carl Zeiss AG, Oberkochen, Germany) at 400 [drawing 172] magnification. For the detection of autophagosomes, AO staining of cells seeded in 2-well chamber slides was applied. […] The dye was then removed, the cells were rinsed with PBS and immediately evaluated via fluorescence microscopy at 400 [drawing 175] magnification using the Leica DM4 B microscope equipped with a DFC7000 T camera (Leica Microsystems CMS GmbH, Wetzlar, Germany).
# [5] = test system: MC38 cells; experiment: CFSE cell proliferation, flow cytometry; assay type: cell-based, murine; conditions: IC50 concentration, 72 h
# Procedure: as §5
substance,measurement,setting,value
"1-[2-(7,8-dicarba-nido-undecaborate)]- [drawing 126] H-indolium-2-amine [compound 3]",IC50,"[1]; mean±SD, read-out: IC50 [μM] (n = 3) MC38 CV",9.5 ± 0.4 µM
same,cell viability on co-treatment with 3-methyladenine (3-MA),"[1]; IC50 concentration of 3 plus 3-MA 1 mM, CV assay",further viability decrease
same,cell viability on co-treatment with chloroquine (Chlq),"[1]; IC50 concentration of 3 plus Chlq 20 μM, CV assay",further viability decrease
same,IC50,[2],11.5 ± 1 µM
same,total caspase activity vs controls,[3],no significant change in total caspase activity
same,autophagosomes in the cytoplasm (acridine orange),[4],intensified presence of autophagosomes
same,CFSE mean fluorescence intensity (undivided cell fraction),[5],significantly higher in comparison to controls
